Results reported in patent publication US20190119200A1, “TERTIARY AMIDES AND METHOD OF USE” (AbbVie Inc., priority 2016, published 2019).

Assays:
Assay type in all cases: cell-based
LPAR1 [1] = target: T1, LPAR1 (Homo sapiens, UniProt Q92633); test: LPAR1 FLIPR Assay; settings: U2OS cells stably expressing LPAR1, LPA (EC80), Calcium 6 FLIPR dye; for Emax: read-out: Maximum Inhibition
T1 construct: host or cells: U2OS
How it was run: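 U2OS cells stably expressing LPAR1 were loaded with Calcium 6 dye for 2 h at 37° C, preincubated 3 min with compound (11-point 3-fold series), then stimulated with LPA at EC80. Fluorescence at 515-575 nm was recorded by FLIPR; IC50 came from four-parameter logistic fits of ratio data.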

[2] = tested on: LPA-induced MCP-1 in NRK-49F cells; test: LPA-induced MCP-1 AlphaLISA assay; settings: Rattus norvegicus, final LPA 10 μM, 7 hours; for Emax: read-out: Maximum Inhibition
How it was run: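 NRK-49F rat fibroblasts, serum-starved overnight, pretreated with compound for 30 min at 37 °C (1% DMSO final), then stimulated with 10 μM LPA final. MCP-1 in the supernatant was measured by mouse/rat CCL2 AlphaLISA. IC50 values came from four-parameter logistic fits of the ratio data.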

LPAR1 [3] = target: T1, LPAR1; test: LPAR1 Arrestin Assay (arrestin reporter assay); settings: U2OS cells stably expressing the LPAR1 receptor, 200 nM 18:1 LPA (EC80); for Emax: read-out: Maximum Inhibition
Experimental: One day prior to the experiment, frozen U2OS cells stably expressing the LPAR1 receptor (Life Technologies, Grand Island, N.Y., #K1519A) were thawed, centrifuged at 1,000 rpm for 5 minutes to remove DMSO, and resuspended in FreeStyle™ media (Gibco, Grand Island, N.Y.). Forty microliters of cells were plated into PDL-coated 384-well plates (Greiner Bio-One, Monroe, N.C.) at 10,000 cells/well, and then the plates were incubated overnight in humidified 5% CO2 at 37° C. Test compounds were dissolved in DMSO, and 12-point, 1:3 dilution CRCs were prepared in duplicate; daughter plates were prepared by aliquoting 0.8 μL/well of test compound dilutions into 384-well plates. On the day of the assay, the daughter plates were diluted to 6× stocks using HEPES-buffered HBSS, then 10 μL of 6× test compounds were added to the cells, and the plates were incubated at 37° C. for one hour. After this 1 hour incubation, 10 μL of a 6× stock of the LPAR1 agonist, 18:1 LPA (Avanti Polar Lipids, Alabaster, Ala.), was prepared in HEPES-buffered HBSS+0.1% fatty acid-free BSA (Sigma, St. Louis, Mo.). The 6×LPA was added to all wells for a final concentration of 200 nM, which corresponds to the 18:1 LPA EC80 in this arrestin assay. The final DMSO concentration in the assay plate was 0.1%, and the final BSA concentration was 0.02%. After addition of LPA to all wells, the assay plates were incubated in humidified 5% CO2 at 37° C. for five hours. During the incubation period, 6× dye from the LiveBLAzer™-FRET B/G with CCF4-AM kit (Life Technologies, Grand Island, N.Y.) was prepared according to manufacturers' instructions. At the end of the 5 hour compound incubation, 10 μL of 6× dye was added to each well, and the assay plate was incubated for two hours in the dark at room temperature. Throughout the assay procedure, all volume additions were performed with a Biomek® NX liquid handler (Beckman Coulter, Indianapolis, Ind.). After the 2 hour dye-load, fluorescence was measured on an EnVision® Multilabel Plate Reader (Perkin Elmer, Waltham, Mass.) with an excitation filter at 409/20 nm and emission filters at 460/40 nm and 530/30 nm. Data processing was performed as recommended by the LiveBLAzer™-FRET B/G with CCF4-AM kit manual; all test compound CRCs were performed in duplicate with n≥3.

T1 sequence (Q92633 whole entry): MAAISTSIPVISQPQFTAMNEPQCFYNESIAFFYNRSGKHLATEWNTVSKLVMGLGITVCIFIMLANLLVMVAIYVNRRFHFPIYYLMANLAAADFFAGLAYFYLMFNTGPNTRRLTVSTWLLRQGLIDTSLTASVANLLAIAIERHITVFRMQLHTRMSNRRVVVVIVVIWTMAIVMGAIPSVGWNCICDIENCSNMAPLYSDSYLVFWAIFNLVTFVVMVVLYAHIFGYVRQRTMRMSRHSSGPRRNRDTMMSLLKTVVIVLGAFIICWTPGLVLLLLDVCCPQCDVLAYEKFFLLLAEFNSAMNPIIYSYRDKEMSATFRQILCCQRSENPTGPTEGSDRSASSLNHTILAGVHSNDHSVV

Structure (SMILES) | IC50 (LPAR1 [1]) | Emax (LPAR1 [1]) | IC50 [2] | Emax [2] | IC50 (LPAR1 [3]) | Emax (LPAR1 [3])
COc1cc(OC)cc(C(=O)N(CCCCC(=O)O)CCCc2ccccc2F)c1 [Example 134, 5-{(3,5-dimethoxybenzoyl)[3-(2-fluorophenyl)propyl]amino}pentanoic Acid] | 74 nM | 77% | > 10000 nM | 37% | 2240 nM | 125%
COc1cc(C(=O)N(CCCc2ccc(F)cc2)CCOCC(=O)O)cc(OC)c1C [Example 139, (2-{(3,5-dimethoxy-4-methylbenzoyl)[3-(4-fluorophenyl)propyl]amino}ethoxy)acetic Acid] | 46 nM | 78% | 3150 nM | 72% | 464 nM | 125%
COc1cc(C(=O)N(CCCCC(=O)O)CCCc2c(F)cccc2F)cc(OC)c1C [Example 147, 5-{[3-(2,6-difluorophenyl)propyl](3,5-dimethoxy-4-methylbenzoyl)amino}pentanoic Acid] | 31 nM | 93% | 665 nM | 86% | 178 nM | 122%
COc1cc(C(=O)N(CCCc2ccccc2)CCCC(O)C(=O)O)cc(OC)c1C (stereo not drawn) [Example 151, 5-[(3,5-dimethoxy-4-methylbenzoyl)(3-phenylpropyl)amino]-2-hydroxypentanoic Acid] | 37 nM | 79% | 1630 nM | 79% | 665 nM | 114%
COc1cc(C(=O)N(CCCc2ccc(C)o2)CCCC(C)(O)C(=O)O)cc(OC)c1C (stereo not drawn) [Example 174, 5-{(3,5-dimethoxy-4-methylbenzoyl)[3-(5-methylfuran-2-yl)propyl]amino}-2-hydroxy-2-methylpentanoic Acid] | 33 nM | 73% | 5430 nM | 65% | 991 nM | 118%
COc1cc(C(=O)N(CCCCC(=O)O)CCCc2ccc(C)o2)c(F)c(OC)c1F [Example 175, 5-{(2,4-difluoro-3,5-dimethoxybenzoyl)[3-(5-methylfuran-2-yl)propyl]amino}pentanoic Acid] | 48 nM | 73% | 3940 nM | 67% | 5680 nM | 119%
COc1cc(C(=O)N(CCCCC(=O)O)CCCc2ccc(C)o2)cc(OC)c1C1CC1 [Example 178, 5-{(4-cyclopropyl-3,5-dimethoxybenzoyl)[3-(5-methylfuran-2-yl)propyl]amino}pentanoic Acid] | 45 nM | 84% | 1970 nM | 77% | 1560 nM | 122%
COc1cc(C(=O)N(CCCc2ccccc2)CCOC(=O)NS(C)(=O)=O)cc(OC)c1C [Example 184, 2-[(3,5-dimethoxy-4-methylbenzoyl)(3-phenylpropyl)amino]ethyl (methanesulfonyl)carbamate] | 131 nM | 66% | 5560 nM | 58% | 1550 nM | 99%
